Measured values published in US9770407B2 (Lundbeck Pharmaceuticals LLC, priority 2005, dated 2017).

Legend:
[1] = Steady-state trough concentrations, oral observed vs IV predicted by the method of superposition; format: in vivo, human
Protocol: The most relevant factor in considering the dose adjustment for intravenously administered CBZ is for treatment centers to maintain plasma concentrations of CBZ above the therapeutic threshold. Following administration of 100 mg of IV CBZ, observed plasma concentrations followed a […] decay indicating a very fast distribution to tissues followed by a slower elimination of drug out of the body. Steady-state plasma concentrations of IV CBZ were predicted using the method of superposition. Plasma concentrations following a single dose of IV CBZ were scaled-up to steady-state conditions, assuming linear pharmacokinetics, using an accumulation ratio, a mean F of 0.7, and correcting for dose (see Equations 1 and 2). As a result, this calculation allows for a comparison of steady-state trough plasma concentrations following oral (Co and IV (C6 hr) administration of CBZ respectively assuming a dosing interval of once every six hours for the IV formulation.
[formula] Where Cpss(IV) is the plasma concentration (C) at steady state for IV administration; CpsD is the plasma concentration after a single dose; Int is the y-intercept resulting from linear regression of the elimination phase; λ is the terminal elimination rate constant; Dpo is the total oral daily dose; DIV is the single IV dose; F is the absolute bioavailability; T is the dosing interval; and t is the time of each observed concentration.

[2] = Estimated dissociation of CBZ from the inclusion complex on dilution in blood; settings: based on simulations of dilution effects; assumes no interaction from endogenous agents
From the text: These relatively weak associations are within the range (100-20,000 M^−1) of those commonly seen with drug: cyclodextrin complexes (Crit. Rev. Ther. Drug Carrier Systems, 14 (1): 1-104, 1997).
The minimal volume of distribution of a drug administered intravenously is based on the plasma volume, which is approximately 5% of the body weight. Therefore, in a 70 kg subject, the plasma volume is approximately 3.5 L. Alternatively, one could assume that the volume of distribution is extracellular water, accounting for approximately 30% of the total body weight, in which case the volume of distribution is about 21 L.
If a 20 mL dose were administered, the dilution ranges from 175-1,050-fold.
Based on the simulations of dilution effects, it appears that 70-95% of the CBZ will immediately dissociate from the inclusion complex in the blood if one assumes no interaction from endogenous agents.

NC(=O)N1c2ccccc2C=Cc2ccccc21 [Carbamazepine, 5H-dibenz[b,f]azepine-5-carboxamide]
statistical comparison of trough values following oral and IV administration ([1]; 6-hour time-point, α=0.10, p=0.1931): not statistically different | statistical comparison of trough values following oral and IV administration ([1]; 12-hour time-point, post-dose): significantly different | Difference Between the Means ([1]; Co (oral only) vs C6 hr (IV only), N=62): 0.09456 | concentration at 6 h ([1]; human, plasma, 100 mg, predicted by superposition, IV every six hours, mean F=0.70, N=62, read-out: C6 hr (IV only), mean steady-state plasma concentration at the 6-hour time-point): 8040 ng/mL | Co (oral only), mean oral steady-state trough plasma concentration ([1]; observed, oral twice daily dosing, n=62 evaluable subjects): 8.98 µg/mL | CBZ that will immediately dissociate from the inclusion complex in the blood [2]: 70-95%
